Data taken from publication PMC11046985 (Neuro-Oncology Advances, 2024).
Where two headings read alike, the source gives them in different places.

How the values were obtained:
[1] = Afatinib plasma concentration, HPLC-MS/MS, phase I pulsatile afatinib; assay type: in vivo, human
Experimental: (§1) Pharmacokinetic (PK) data were obtained to guide optimal dose of afatinib. The time of maximum plasma concentration is reported between 2 and 5 hours after dosing.[18],[19]

[2] = Afatinib CSF concentration (lumbar puncture), HPLC-MS/MS; assay type: in vivo; details: human, oral
Experimental: as §1

[3] = tested on: progressive or recurrent brain cancers; assay: Tumor response by MRI (RANO criteria), PFS, survival, cycles received; assay type: in vivo, human
Experimental: Tumor response was assessed by MRI after every 2 treatment cycles, or earlier if clinically indicated, according to the Response Assessment in Neuro-Oncology criteria.

[4] = read-out: Maximum concentration (Cmax) of afatinib in plasma; single dose of 40 mg, patients with solid tumors; cited from earlier work
[5] = daily afatinib, recurrent glioblastoma; read-out: Cmax in plasma; cited from earlier work
[6] = tested on: U87MG human glioblastoma cells; details: cited from earlier work
[7] = tested on: U87EGFRvIII human glioblastoma cells; details: cited from earlier work
[8] = mouse, 30 mg/kg afatinib, CSF from the dura through the atlanto-occipital membrane; cited from earlier work
[9] = 21 patients evaluable for efficacy
[10] = dose cohort 1 (80 mg every 4 days)
[11] = dose cohort 1 (80 mg every 4 days), 2 response-evaluable
[12] = dose cohort 2 (120 mg every 4 days)
[13] = dose cohort 2 (120 mg every 4 days), 3 response-evaluable
[14] = dose cohort 3 (180 mg every 4 days)
[15] = dose cohort 3 (180 mg every 4 days), 6 response-evaluable
[16] = dose cohort 4 (280 mg every 7 days), 10 response-evaluable

CN(C)C/C=C/C(=O)Nc1cc2c(Nc3ccc(F)c(Cl)c3)ncnc2cc1O[C@H]1CCOC1 [Afatinib]
Highest afatinib level in blood, one patient ([1]; 120 mg every 4 days cohort): approximately 0.8 μM
Cmax ([1]; human, plasma, 3 hours (± 2 hours) post dosing, oral, all cohorts): < 392 ng/mL
Pre-dose (trough) afatinib levels in blood ([1]; pulse dosing, all cohorts): under 50 nM
Afatinib concentration in blood ([1]; subject 002, Cohort 1: 80 mg q4d, post dosing, C1D8): 12.323 ng/mL
Afatinib concentration in blood ([1]; subject 002, Cohort 1: 80 mg q4d, pre dosing, C1D8): 8.751 ng/mL
Afatinib concentration in blood ([1]; subject 002, Cohort 1: 80 mg q4d, pre dosing, C2D1): 11.693 ng/mL
Afatinib concentration in blood ([1]; subject 002, Cohort 1: 80 mg q4d, pre dosing, EOT (EoC2)): <LLOQ (EoC2)
Afatinib concentration in blood ([1]; subject 003, Cohort 1: 80 mg q4d, post dosing, C1D22): 30.096 ng/mL
Afatinib concentration in blood ([1]; subject 003, Cohort 1: 80 mg q4d, pre dosing, C1D22): 17.318 ng/mL
Afatinib concentration in blood ([1]; subject 004, Cohort 1: 80 mg q4d, pre dosing, C2D1): <LLOQ
Afatinib concentration in blood ([1]; subject 005, Cohort 2: 120 mg q4d, post dosing, C1D15): 37.68 ng/mL
Afatinib concentration in blood ([1]; subject 005, Cohort 2: 120 mg q4d, pre dosing, C2D1): 7.18 ng/mL
Afatinib concentration in blood ([1]; subject 006, Cohort 2: 120 mg q4d, post dosing, C1D15): 66.156 ng/mL
Afatinib concentration in blood ([1]; subject 006, Cohort 2: 120 mg q4d, pre dosing, C1D15): <LLOQ
Afatinib concentration in blood ([1]; subject 006, Cohort 2: 120 mg q4d, pre dosing, C2D1): 10.104 ng/mL
Afatinib concentration in blood ([1]; subject 006, Cohort 2: 120 mg q4d, pre dosing, C3D1): <LLOQ
Afatinib concentration in blood ([1]; subject 006, Cohort 2: 120 mg q4d, pre dosing, C4D1): 11.223 ng/mL
Afatinib concentration in blood ([1]; subject 008, Cohort 2: 120 mg q4d, post dosing, C1D8): 392.01 ng/mL
Afatinib concentration in blood ([1]; subject 008, Cohort 2: 120 mg q4d, pre dosing, C1D8): 22.243 ng/mL
Afatinib concentration in blood ([1]; subject 010, Cohort 3: 180 mg q4d, post dosing, C1D22): 324.265 ng/mL
Afatinib concentration in blood ([1]; subject 010, Cohort 3: 180 mg q4d, pre dosing, C1D22): 43.226 ng/mL
Afatinib concentration in blood ([1]; subject 011, Cohort 3: 180 mg q4d, post dosing, C1D8): 11.705 ng/mL
Afatinib concentration in blood ([1]; subject 011, Cohort 3: 180 mg q4d, pre dosing, C1D8): 11.616 ng/mL
Afatinib concentration in blood ([1]; subject 011, Cohort 3: 180 mg q4d, pre dosing, C3D1): 19.265 ng/mL
Afatinib concentration in blood ([1]; subject 012, Cohort 3: 180 mg q4d, post dosing, C1D15): 96.354 ng/mL
Afatinib concentration in blood ([1]; subject 012, Cohort 3: 180 mg q4d, post dosing, C2D1): 85.834 ng/mL
Afatinib concentration in blood ([1]; subject 012, Cohort 3: 180 mg q4d, pre dosing, C1D15): <LLOQ
Afatinib concentration in blood ([1]; subject 012, Cohort 3: 180 mg q4d, pre dosing, C2D1): <LLOQ
Afatinib concentration in blood ([1]; subject 012, Cohort 3: 180 mg q4d, pre dosing, EOT (EoC4)): 6.402 (EoC4) ng/mL
Afatinib concentration in blood ([1]; subject 013, Cohort 3: 180 mg q4d, pre dosing, C1D15): 10.374 ng/mL
Afatinib concentration in blood ([1]; subject 013, Cohort 3: 180 mg q4d, pre dosing, C2D1): 41.964 ng/mL
Afatinib concentration in blood ([1]; subject 013, Cohort 3: 180 mg q4d, pre dosing, C4D1): 6.787 ng/mL
Afatinib concentration in blood ([1]; subject 014, Expansion Cohort 3: 180 mg q4d, post dosing, C1D8): 60.605 ng/mL
Afatinib concentration in blood ([1]; subject 014, Expansion Cohort 3: 180 mg q4d, pre dosing, C1D8): 11.442 ng/mL
Afatinib concentration in blood ([1]; subject 015, Cohort 4: 280 mg q7d, post dosing, C1D15): 40.694 ng/mL
Afatinib concentration in blood ([1]; subject 015, Cohort 4: 280 mg q7d, pre dosing, EOT (EoC1)): <LLOQ (EoC1)
Afatinib concentration in blood ([1]; subject 016, Cohort 4: 280 mg q7d, post dosing, C1D15): 205.634 ng/mL
Afatinib concentration in blood ([1]; subject 017, Expansion Cohort 3: 180 mg q4d, post dosing, C1D15): 89.884 ng/mL
Afatinib concentration in blood ([1]; subject 017, Expansion Cohort 3: 180 mg q4d, pre dosing, C1D15): 10.425 ng/mL
Afatinib concentration in blood ([1]; subject 017, Expansion Cohort 3: 180 mg q4d, pre dosing, C2D1): 5.708 ng/mL
Afatinib concentration in blood ([1]; subject 017, Expansion Cohort 3: 180 mg q4d, pre dosing, C3D1): <LLOQ
Afatinib concentration in blood ([1]; subject 017, Expansion Cohort 3: 180 mg q4d, pre dosing, C4D1): 6.264 ng/mL
Afatinib concentration in blood ([1]; subject 018, Cohort 4: 280 mg q7d, post dosing, C1D15): 322.557 ng/mL
Afatinib concentration in blood ([1]; subject 018, Cohort 4: 280 mg q7d, post dosing, C2D1): 340.709 ng/mL
Afatinib concentration in blood ([1]; subject 018, Cohort 4: 280 mg q7d, pre dosing, C1D15): 9.603 ng/mL
Afatinib concentration in blood ([1]; subject 018, Cohort 4: 280 mg q7d, pre dosing, C2D1): 22.084 ng/mL
Afatinib concentration in blood ([1]; subject 018, Cohort 4: 280 mg q7d, pre dosing, C3D1): 14.169 ng/mL
Afatinib concentration in blood ([1]; subject 018, Cohort 4: 280 mg q7d, pre dosing, C4D1): 11.731 ng/mL
Afatinib concentration in blood ([1]; subject 018, Cohort 4: 280 mg q7d, pre dosing, EOT (EoC4)): 10.379 (EoC4) ng/mL
Afatinib concentration in blood ([1]; subject 019, Expansion Cohort 4: 280 mg q7d, post dosing, C1D8): 153.973 ng/mL
Afatinib concentration in blood ([1]; subject 019, Expansion Cohort 4: 280 mg q7d, pre dosing, C1D8): 9.857 ng/mL
Afatinib concentration in blood ([1]; subject 019, Expansion Cohort 4: 280 mg q7d, pre dosing, C2D1): 11.805 ng/mL
Afatinib concentration in blood ([1]; subject 019, Expansion Cohort 4: 280 mg q7d, pre dosing, EOT (EoC2)): <LLOQ (EoC2)
Afatinib concentration in blood ([1]; subject 020, Expansion Cohort 4: 280 mg q7d, post dosing, C1D15): 110.625 ng/mL
Afatinib concentration in blood ([1]; subject 020, Expansion Cohort 4: 280 mg q7d, pre dosing, C1D15): 8.586 ng/mL
Afatinib concentration in blood ([1]; subject 020, Expansion Cohort 4: 280 mg q7d, pre dosing, C2D1): 11.278 ng/mL
Afatinib concentration in blood ([1]; subject 021, Expansion Cohort 4: 280 mg q7d, post dosing, C1D15): 40.352 ng/mL
Afatinib concentration in blood ([1]; subject 021, Expansion Cohort 4: 280 mg q7d, pre dosing, C1D15): 5.966 ng/mL
Afatinib concentration in blood ([1]; subject 021, Expansion Cohort 4: 280 mg q7d, pre dosing, C2D1): <LLOQ
Afatinib concentration in blood ([1]; subject 021, Expansion Cohort 4: 280 mg q7d, pre dosing, EOT (C2D15)): <LLOQ (C2D15)
concentration at 3 h ([2]; 8 patients, approximately 3 hours after dosing in the first cycle, below lower limit of quantification): < 1.01 ng/mL
concentration at 3 h ([2]; not detected, lower limit of quantification): < 2.09 nM
Disease stabilization, % of patients [3, 9]: 14.3%
Disease stabilization, No. of patients [3, 9]: 3
Partial response (RANO), % of patients [3, 9]: 9.5%
Partial response (RANO), No. of patients [3, 9]: 2
Progressive disease, No. of patients [3, 9]: Sixteen
Median overall survival ([3]; all patients): 10.3 months
PFS, Median [3, 10]: 44 days
PFS, Range [3, 10]: 32 to 56 days
Best Response CR, No. of patients [3, 11]: 0
Best Response PD, No. of patients [3, 11]: 2
Best Response PR, No. of patients [3, 11]: 0
Best Response SD, No. of patients [3, 11]: 0
PFS, Median [3, 12]: 42 days
PFS, Range [3, 12]: 29 to 106 days
Best Response CR, No. of patients [3, 13]: 0
Best Response PD, No. of patients [3, 13]: 2
Best Response PR, No. of patients [3, 13]: 1
Best Response SD, No. of patients [3, 13]: 0
PFS, Median [3, 14]: 78 days
PFS, Range [3, 14]: 20 to 261 days
Best Response CR, No. of patients [3, 15]: 0
Best Response PD, No. of patients [3, 15]: 4
Best Response PR, No. of patients [3, 15]: 0
Best Response SD, No. of patients [3, 15]: 2
PFS, Median ([3]; dose cohort 4 (280 mg every 7 days)): 56 days
Best Response CR, No. of patients [3, 16]: 0
Best Response PD, No. of patients [3, 16]: 8
Best Response PR, No. of patients [3, 16]: 1
Best Response SD, No. of patients [3, 16]: 1
Median overall survival ([3]; glioblastoma): 5.2 months
Median progression-free survival ([3]; overall): 2.0 months
Progression-free survival rate at 6 months (PFS6) ([3]; patients with glioblastoma (n = 16)): 0%
Cmax [4]: ~10 nM
Cmax [5]: ~24 nM
Inhibitory concentration of 25% (IC25) [6]: approximately 2 μM
Inhibitory concentration of 25% (IC25) [7]: ~1000 nM
Time of peak concentration in CSF after dosing [8]: one
